Assay results: patent publication US10010614B2, “Derivatives of GLP-1 like peptides, and uses thereof” (Novo Nordisk A/S, priority 2013, dated 2018)
Numbered stars: 1 amine (or outer) side, 2 acyl side, 3 side chain; on linkers, the order of the positions; unused ones are H or OH. Square brackets hold non-standard residues; d marks the D form. Side chains are listed from the residue outwards. Peptide text beside a SMILES is read from it. * marks the point of attachment. C20 diacid = O=C(O)CCCCCCCCCCCCCCCCCCC(=O)*; γGlu = O=C(O)[C@H](CCC(=O)[*:2])N[*:1]; Trx = NC[C@H]1CC[C@H](C(=O)O)CC1; AEEA = NCCOCCOCC(=O)O; Aib = CC(C)(N)C(=O)O

Legend:
[1] = Pharmacokinetic study in minipigs (i.v.); type: in vivo; conditions: male, Göttingen, minipig, plasma, iv; read-out: Terminal half-live (converted)
Protocol: The purpose of this study is to determine the protraction in vivo of the GLP-1 derivatives after i.v. administration to minipigs, i.e. the prolongation of their time in the body and thereby their time of action. This is done in a pharmacokinetic (PK) study, where the terminal half-life of the derivative in question is determined. By terminal half-life is meant the time it takes to halve a certain plasma concentration in the terminal elimination phase.
The derivatives of Examples 1-5 were dosed with 2 nmol/kg, the derivative of Example 6 was dosed with 5 nmol/kg, and the derivatives of Examples 7-9 were dosed with 15 nmol/kg.
Male Göttingen minipigs were obtained from Ellegaard Göttingen Minipigs (Dalmose, Denmark) approximately 7-14 months of age and weighing approximately 16-35 kg were used in the studies. The minipigs were housed either individually (pigs with permanent catheters) or in a group and fed restrictedly once or twice daily with SDS minipig diet (Special Diets Services, Essex, UK).
After at least 2 weeks of acclimatisation two permanent central venous catheters were implanted in vena cava caudalis or cranialis in each animal. The animals were allowed 1 week recovery after the surgery, and were then used for repeated pharmacokinetic studies with a suitable wash-out period between successive GLP-1 derivative dosings.
The GLP-1 derivatives were dissolved in 50 mM sodium phosphate, 70-145 mM sodium chloride, 0.05% tween 80, pH 7.4 to a concentration of usually from 20-60 nmol/ml.
Intravenous injections (the volume corresponding to for example 0.050-0.125 ml/kg) of the compounds were given through one catheter or through the venflon, and blood was sampled at predefined time points for up till 25 days post dosing (preferably through the other catheter or by venipuncture). Blood samples (for example 0.8 ml) were collected in EDTA buffer (8 mM) and then centrifuged at 4° C. and 1942G for 10 minutes.
Plasma was pipetted into Micronic tubes on dry ice, and kept at −20° C. until analysed for plasma concentration of the respective GLP-1 compound using LOCI. Individual plasma concentration-time profiles were analyzed by a non-compartmental pharmacokinetic method in Phoenix v. 6.2 (Pharsight Inc., Mountain View, Calif., USA), or other relevant software for PK analysis, and the resulting terminal half-lives (harmonic mean) determined.

[2] = molecular target: T1, human GLP-1 receptor (Homo sapiens, UniProt P43220); assay: GLP-1 receptor binding, competitive binding assay (125I-GLP-1, SPA) on isolated membranes;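 note: test compounds added at a range of concentrations to membranes from cells expressing the human GLP-1 receptor, scored by displacement of labelled ligand, read with WGA SPA beads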
T1 construct: expressed in transfected cells; host or cells: membranes prepared from BHK cells (parent line BHKTS13), clone FCW467-12A
T1 sequence (P43220 24-463): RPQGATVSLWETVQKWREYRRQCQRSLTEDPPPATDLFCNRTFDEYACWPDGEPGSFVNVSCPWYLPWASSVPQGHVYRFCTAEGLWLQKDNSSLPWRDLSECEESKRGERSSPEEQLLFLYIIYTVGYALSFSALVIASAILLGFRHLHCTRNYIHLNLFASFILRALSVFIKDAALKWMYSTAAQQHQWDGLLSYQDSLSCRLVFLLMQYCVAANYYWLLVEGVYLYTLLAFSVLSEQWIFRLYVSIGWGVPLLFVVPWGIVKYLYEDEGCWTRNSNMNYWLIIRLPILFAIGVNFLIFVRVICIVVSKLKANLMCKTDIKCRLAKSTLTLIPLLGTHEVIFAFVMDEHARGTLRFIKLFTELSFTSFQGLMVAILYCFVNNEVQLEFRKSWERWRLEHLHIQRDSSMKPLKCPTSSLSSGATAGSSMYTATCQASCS

[3] = molecular target: T1, human GLP-1 receptor; assay: In vitro potency, CRE luciferase reporter gene assay in BHK cells expressing the human GLP-1 receptor; type: cell-based; conditions: whole cell reporter gene assay, 3 h incubation, no HSA, averages of at least two replicates
How it was run: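 Stably transfected BHK cells (5×10^3/well) expressing human GLP-1R with a CRE-luciferase reporter; compounds diluted in buffer with 2% ovalbumin and 0.2% Pluronic F-68, final 1×10^−7 to 1×10^−14 M. Incubated 3 h at 37 °C, 5% CO2, then luminescence read; potency from non-linear log(agonist)–response fit, mean of ≥2 replicates.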

CC[C@H](C)[C@H](NC(=O)[C@H](Cc1ccccc1)NC(=O)[C@H](CCC(=O)O)NC(=O)[C@H](CCCNC(=N)N)NC(=O)[C@H](C)NC(=O)[C@H](C)NC(=O)[C@H](CCC(N)=O)NC(=O)[C@H](CCC(=O)O)NC(=O)[C@H](CCC(=O)O)NC(=O)[C@H](CC(C)C)NC(=O)[C@H](Cc1ccc(O)cc1)NC(=O)[C@H](CO)NC(=O)[C@H](CO)NC(=O)[C@@H](NC(=O)[C@H](CC(=O)O)NC(=O)[C@H](CO)NC(=O)[C@@H](NC(=O)[C@H](Cc1ccccc1)NC(=O)[C@@H](NC(=O)CNC(=O)[C@H](CCC(=O)O)NC(=O)C(C)(C)NC(=O)[C@@H](N)Cc1c[nH]cn1)[C@@H](C)O)[C@@H](C)O)C(C)C)C(=O)N[C@@H](C)C(=O)N[C@@H](Cc1c[nH]c2ccccc12)C(=O)N[C@@H](CC(C)C)C(=O)N[C@H](C(=O)N[C@@H](CCCNC(=N)N)C(=O)NCC(=O)N[C@@H](CCCNC(=N)N)C(=O)NCC(=O)N[C@@H](CCCCNC(=O)COCCOCCNC(=O)COCCOCCNC(=O)CC[C@H](NC(=O)[C@H]1CC[C@H](CNC(=O)CCCCCCCCCCCCCCCCCCC(=O)O)CC1)C(=O)O)C(=O)NCC(=O)NCC(=O)N[C@@H](CO)C(=O)N[C@@H](CCCCNC(=O)COCCOCCNC(=O)COCCOCCNC(=O)CC[C@H](NC(=O)[C@H]1CC[C@H](CNC(=O)CCCCCCCCCCCCCCCCCCC(=O)O)CC1)C(=O)O)C(=O)O)C(C)C [Example 3] (H-H[Aib]EGTFTSDVSSYLEEQAAREFIAWLVRGRGK([AEEA-AEEA-γGlu-Trx-C20 diacid])GGSK([AEEA-AEEA-γGlu-Trx-C20 diacid])-OH)
half-life [1]: 147 h | IC50 ([2]; High HSA IC50 (nM), high serum albumin (2.0% HSA final assay concentration)): 185 nM | IC50 ([2]; Low HSA IC50 (nM), low serum albumin (max. 0.001% final assay concentration)): 1.2 nM | EC50 [3]: 0.043 nM
